Data as given in US10689423B2, “CTLA4-binding protein peptide-linker masks” (City of Hope, priority 2015, dated 2020).
pKd: −log10 of the molar value. Bridge positions count the residues as written; N and C are the ends. Peptide text beside a SMILES is read from it.

Experiments:
Lcn2-Fc = test: Phage competition ELISA of surface-bound peptides on immobilized Lcn2-Fc; type: binding; conditions: compared to Lcn2-Fc pre-complexed with CTLA4-Fc or PBS control
Text: FIGS. 2A and 2B: Identification and characterization of a peptide (CTLA-4 binding domain masking peptide) blocking binding of mLcn2 (CTLA-4 binding domain) to CTLA-4. […] FIG. 2B is a graph showing surface plasmon resonance traces of analyte mLcn2-Fc flowed over ligand Peptide 16 immobilized to a CM5 chip.
FIG. 10B: ELISA results of bacteriophage library after three rounds of enrichment. Wells in a 96-well plate were immobilized with mLcn2-Fc (left column), mLcn2-Fc pre-complexed with CTLA-4-Fc (middle column), or PBS (right column). Each condition was performed in triplicate.
FIGS. 12A-12D: 18 min substrate incubation. […] FIG. 12A is a graph showing Clone 1—YGLGFNF (SEQ ID NO:52); FIG. 12B is a graph showing Clone 2—RIDETLQ (SEQ ID NO:53); FIG. 12C is a graph showing Clone 3—FTPWPEA (SEQ ID NO:54); and FIG. 12D is a graph showing Clone 4—WPEWDLW (SEQ ID NO:55).
FIGS. 13A-13D: 18 min substrate incubation. […] FIG. 13A is a graph showing clone 6—EKWFRFM (SEQ ID NO:56); FIG. 13B is a graph showing clone 8—YLELMHS (SEQ ID NO:57); FIG. 13C is a graph showing clone 12—SVLPPFM (SEQ ID NO:58); FIG. 13D is a graph showing clone 16—WSPLPFM (SEQ ID NO:59).
(§1) The sequence of mLcn2 was obtained from the PDB, synthesized and produced in bacteria. Peptides that specifically bind to mLcn2 were identified using a cyclic 7-mer library. Positive leads were identified and sequencing of these hits indicated an overall pattern in the sequences. To further characterize the lead peptides and to ensure the peptides bound to the same site as CTLA, a competition ELISA was performed using all leads (FIG. 2A). Based on this analysis, two cyclic peptides were chosen, chemically synthesized, and characterized by SPR (FIG. 2B) and crystallography. Well diffracting crystals were obtained for both complexes (1.95 and 2.15 Å) and refined (R/Rfree of 18.0/22.5% and 16.5/18.5% and no Ramachandran outliers). […] Design of the linker was aided by examination of the crystal structure of lipocalin.

mLcn2-Fc = test: SPR of analyte mLcn2-Fc flowed over immobilized Peptide12; type: binding; conditions: peptide immobilized on CM5 chip, three independent experiments
Text: FIG. 14B: mLCN2-Fc vs. Pep12. Surface plasmon resonance of analyte mLcn2-Fc flowed over ligand Peptide12 immobilized to a CM5 chip. Representative results are shown from three independent experiments.
as §1

[1] = most common major toxicity; cited from earlier work
mLcn2 = target: T1, mLcn2 (Homo sapiens, UniProt P80188, A60R/C107S/D67H/D97E/E64D/F91S/G122D/H138Y/K145L/K154A/K66Q/K70N/K93H/L123K/L157I/L90I/M140V/N134D/P121G/Q148D/Q48H/Q69M/R101A/R150A/R92S/S147E/T165A/V146A/W99T/Y152F); test: SPR of analyte mLcn2 flowed over immobilized Peptide16; type: binding
T1 construct: made in house; host or cells: bacteria
Text: FIG. 14A: mLCN2 vs. Pep16. Surface plasmon resonance of analyte mLcn2 flowed over ligand Peptide16 immobilized to a CM5 chip. Representative results are shown from three independent experiments.
as §1

Compound | phage binding to immobilized Lcn2-Fc by ELISA (Lcn2-Fc) | also measured
CFTPWPEAC [Peptide 3] | increased binding to immobilized Lcn2-Fc | –
CEKWFRFMC [Peptide 6] | increased binding to immobilized Lcn2-Fc | –
CYLELMHSC [Peptide 8] | increased binding to immobilized Lcn2-Fc | –
CYGLGFNFC [Peptide 1] | increased binding to immobilized Lcn2-Fc | –
ipilimumab | – | patients affected by enterocolitis [1]: approximately 20%
CSCC[C@@H]1NC(=O)[C@H](Cc2ccccc2)NC(=O)[C@@H]2CCCN2C(=O)[C@H](CC(C)C)NC(=O)[C@@H]2CCCN2C(=O)[C@H](CO)NC(=O)[C@H](Cc2c[nH]c3ccccc23)NC(=O)[C@@H](N)CSSC[C@@H](C(=O)O)NC1=O [Peptide 16, CWSPLPFMC] (H-CWSPLPFMC-OH; disulfide 1-9) | – | pKd (mLcn2): 5.34

Further lines, with some results ahead:

phage binding to immobilized Lcn2-Fc by ELISA (Lcn2-Fc) | Compound | also measured
increased binding to immobilized Lcn2-Fc | CSVLPPFMC [Peptide 12] | pKd (mLcn2-Fc): 5.47
increased binding to immobilized Lcn2-Fc | CWPEWDLWC [Peptide 4] | –
increased binding to immobilized Lcn2-Fc | CRIDERLQC [Peptide 2] | –
